In US4024252A, “2-(5-Ethyl-6-bromothiazolo[3,2-b]-5-triazolyl)thiophosphonate esters, compositions and method of use” (priority 1973, dated 1977):
Converted amounts (≈) assume the structure as drawn. Read-outs that look alike come from different tables or passages of the source.

What was measured:
[1] = Toxicity Test 1, acute oral toxicity; details: mouse, in vivo; for LD50 at 336 h: po, mice, stomach tube, 25% aqueous gum arabic, 2 weeks (Table 7); for LD50: oral
Text: Suspension of the test compound in 25% aqueous solution of gum arabic was compulsorily treated to six mice by means of a stomack tube and inspection had been made for 2 weeks.

[2] = system: house flies (Musca domestica Linne); experiment: Test 1 Insecticidal Activity against Fly; format: in vivo; details: topical; for mortality at 0.25 µg/fly: 0.25γ/a fly; for mortality at 0.5 µg/fly: 0.5γ/a fly
Protocol: Fixed concentration of acetone solution containing test compound were prepared.
20 pieces of female adults of house flies (Musca domestica Linne) were tested with 1 μl of acetone solution at their thoracie dorsal by microcylinge and kept at a temperature of 25° C and at a humidity of 65%. 24 hours and 48 hours after treatment, dead flies were counted and mortality (%) was calculated.

[3] = system: tobacco cutworms (Prodenia litura Fabricius); experiment: Test 5 Test for Control of Tobacco cutworm; format: in vivo; details: 72 h, 3 days; for mortality at 31.3 ppm: 31.3 p.p.m.; for mortality at 62.5 ppm: 62.5 p.p.m.; for mortality at 125 ppm: 125 p.p.m.
Protocol: Then the leaf and 5 tobacco cutworms (Prodenia litura Fabricius) of 3 stages larva were put into a covered dish.
The test was carried out twice. After 3 days from inoculation, dead insects were counted and mortality (%) was calculated.

[4] = system: Rice stem borer (Chilo suppressalis Walker); experiment: Test 4 Insecticidal Activity against Rice stem borer; format: in vivo; details: 168 h, a week after spraying
Protocol: 20 hatched nymph of Rice stem borer (Chilo suppressalis Walker) were inoculated to the potted rice (height: 30 - 40 cm, number: 4/pot). A week after inoculation, 30 ml of fixed concentration of solution containing test compound were sprayed on the rice in which hatched nymph were inhabiting and the pots were kept at the room temperature. A week after spraying, the rice was opened, dead Rice stem borers were counted and mortality (%) was calculated.

[5] = system: desert spider mite (Tetranychus desertorum Banks); experiment: Test 3 Test for Control of Mite; format: in vivo; details: 72 h, read-out: Rating of mortality
Protocol: About 30 adult female mites of desert spider mite (Tetranychus desertorum Banks) laid on main leaves of the potted kidney bean plants grown 7 to 10 days stage after aprouting. One day later, the wounded mites were removed from the plants. The compounds to be tested were sprayed on the plants as water suspension of emulsifiable concentrate prepared by the method of Example 6. After 1 day and 3 days from spraying, dead mites were counted and mortality (%) was calculated.

[6] = Toxicity Test 2, medium tolerated limit in carp; format: in vivo, Cyprinus carpio; details: water
Protocol: The test compound was dissolved in dimethylformamide and said solution was added to 20 liters of water containing 10 carps (Cyprinus carpio) in a fixed concentration.
Dead fish within 48 hours from the addition of test compounds was counted.
The results were shown in Table 8 as medium tolerated limit (TLm).
*TLm is the concentration of test compound which half the number of fish

[7] = system: northern house mosquito (Culex pipiens molestus Forskal); experiment: Test 6 Insecticidal Activity against Mosquito; format: in vivo; details: 24 hours after inoculation, aqueous suspension of wettable powder
Protocol: An aqueous suspension of formulated wettable powder were poured in 200 ml beaker and in which 20 northern house mosquito (Culex pipiens molestus Forskal) were inoculated.

[8] = system: Cabbage armyworm (Leucania separate Walker); experiment: Test 2 Insecticidal Activity against Cabbage armyworm; format: in vivo
Protocol: 10 Multigeneration bred armyworms (Leucania separate Walker) were used for one experimental zone.
[…] Then the leaf was set an filter paper having 9 cm diameter in a schale. The test insects were inoculated into the dish and the cover was put on it. After 1 day and 3 days from inoculation, dead insects were counted and mortality (%) were calculated. The results were shown in

[9] = 48 hours (Table 8), read-out: TLm (medium tolerated limit)
[10] = 48 hrs, read-out: medium tolerance limit (48 hrs) for carp

Compound | LD50 at 336 h [1] [mg/kg] | LD50 [1] [mg/kg] | mortality at 500 ppm [5] [%] | LC50 at 48 h [6, 9] [µg/mL] | mortality at 15.7 ppm ([8]; 24 h) [%] | mortality at 7.8 ppm ([8]; 24 h, 1 day) [%] | mortality at 31.3 ppm ([8]; 24 h, 1 day) [%] | mortality at 15.7 ppm ([8]; 72 h) [%] | mortality at 7.8 ppm ([8]; 72 h, 3 days) [%] | mortality at 31.3 ppm ([8]; 72 h, 3 days) [%] | also measured
CCc1c(Br)sc2nc(OP(=S)(OC(C)C)OC(C)C)nn12 [drawing 12] | > 200 |  |  |  |  |  |  |  |  |  | 
CCOP(=S)(OCC)Oc1nc2scc(C)n2n1 [Comparison compound, O,O-diethyl-2-(5-methylthiazolo[3,2-b]-s-triazolyl)thionophosphate, reference compound] | 33 to 50 | 33 to 50 | 100 | < 0.5 | 30 | 0 | 70 | 80 | 0 | 100 | mortality at 0.25 µg/fly ([2]; 24 hrs.): 0%; mortality at 0.25 µg/fly ([2]; 48 hrs.): 10%; mortality at 0.5 µg/fly ([2]; 24 hrs.): 70%; mortality at 0.5 µg/fly ([2]; 48 hrs.): 70%; mortality at 31.3 ppm [3]: 0%; mortality at 62.5 ppm [3]: 80%; mortality at 125 ppm [3]: 100%; mortality at 15.6 ppm ([4]; 15.6 ppm): 84%; mortality at 31.3 ppm [4]: 100%; LC50 [7]: 0.04 µg/mL (≈ 0.13 µM)
CCc1c(Br)sc2nc(OP(=S)(OC)OC)nn12 [drawing 11] | > 200 |  |  |  |  |  |  |  |  |  | 
CCOP(=S)(OCC)Oc1nc2sc(Br)c(C)n2n1 [O,O-diethyl-2-(5-methyl-6-bromothiazolo[3,2-b]-s-triazolyl)thionophosphate, reference compound] |  | 150 |  |  |  |  |  |  |  |  | LC50 at 48 h [6, 10]: < 0.05 µg/mL
CCc1c(Br)sc2nc(OP(=S)(OC)OC)nn12 [Example 1, O,O-Dimethyl 2-(5-ethyl-6-bromothiazolo[3,2-b]s-triazolyl) thionophosphate] |  |  | 100 |  | 60 | 50 | 100 | 100 | 90 | 100 | 
CCc1c(Br)sc2nc(OP(=S)(OC)OC)nn12 [drawing 15] |  |  |  | > 5 |  |  |  |  |  |  | 
CCc1c(Br)sc2nc(OP(=S)(OC(C)C)OC(C)C)nn12 [Example 3, O,O-diisopropyl 2-(5-ethyl-6-bromothiazolo[3,2-b]-s-triazolyl)thionophosphate] |  |  |  |  | 60 | 50 | 100 | 100 | 90 | 100 | 
CCc1c(Br)sc2nc(OP(=S)(OC(C)C)OC(C)C)nn12 [drawing 16] |  |  |  | > 5 |  |  |  |  |  |  | 
CCOP(=S)(OCC)Oc1nc2sc(Br)c(CC)n2n1 [Example 2, O,O-Diethyl 2-(5-ethyl-6-bromothiazolo[3,2-b]-s-triazolyl) thionophosphate] | 280 | 280 | 100 |  | 90 | 60 | 100 | 100 | 100 | 100 | mortality at 0.25 µg/fly ([2]; 24 hrs.): 30%; mortality at 0.25 µg/fly ([2]; 48 hrs.): 40%; mortality at 0.5 µg/fly ([2]; 24 hrs.): 100%; mortality at 0.5 µg/fly ([2]; 48 hrs.): 100%; mortality at 15.6 ppm ([3]; 15.6 p.p.m.): 60%; mortality at 31.3 ppm [3]: 80%; mortality at 62.5 ppm [3]: 100%; mortality at 125 ppm [3]: 100%; mortality at 7.8 ppm ([4]; 7.8 ppm): 91%; mortality at 31.3 ppm [4]: 100%; LC50 at 48 h [6, 10]: 18.5 µg/mL; LC50 [7]: 0.003 µg/mL (≈ 0.0075 µM)
